From BindingDB's records for doi:10.1016/s0960-894x(02)00954-x (A.P.S. University, 2003)

Biological target: Carbonic anhydrase 2 (Homo sapiens, UniProt P00918)
Experiment: Inhibition of human carbonic anhydrase II (CAII)

Compound: NS(=O)(=O)c1cccc(N2C(=O)c3cccnc3C2=O)c1
- Ki: 400 nM
